Assay results from PubChem BioAssay (NCI).
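96-well plates; 48 h exposure; 5 concentrations. Endpoints by linear interpolation between flanking doses. Not reached: highest tested concentration assigned. GI50 is the concentration that inhibits growth by half. TGI marks complete inhibition of growth.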

How the values were obtained:
Experiment in all cases: growth of human tumour cells (NCI), 48 h; in the data active = GI50 below about 0.43 µM; inactive = the rest
OVCAR-5 ovarian = system: OVCAR-5 ovarian
MOLT-4 leukemia = system: MOLT-4 leukemia
HOP-62 NSCLC = system: HOP-62 NSCLC
EKVX NSCLC = system: EKVX NSCLC
SK-MEL-2 melanoma = system: SK-MEL-2 melanoma
SK-OV-3 ovarian = system: SK-OV-3 ovarian
HCT-116 colon = system: HCT-116 colon
KM12 colon = system: KM12 colon
SNB-75 CNS = system: SNB-75 CNS
LOX IMVI melanoma = system: LOX IMVI melanoma
CAKI-1 renal = system: CAKI-1 renal
HCC-2998 colon = system: HCC-2998 colon
A498 renal = system: A498 renal
SF-295 CNS = system: SF-295 CNS
NCI-H23 lung = system: NCI-H23 lung
UO-31 renal = system: UO-31 renal
IGROV1 ovarian = system: IGROV1 ovarian
HOP-92 NSCLC = system: HOP-92 NSCLC
U251 CNS = system: U251 CNS
BT-549 breast = system: BT-549 breast
CCRF-CEM leukemia = system: CCRF-CEM leukemia
UACC-257 melanoma = system: UACC-257 melanoma
SK-MEL-5 melanoma = system: SK-MEL-5 melanoma
PC-3 prostate = system: PC-3 prostate
NCI-H522 lung = system: NCI-H522 lung
OVCAR-4 ovarian = system: OVCAR-4 ovarian
T-47D breast = system: T-47D breast
COLO 205 colon = system: COLO 205 colon
NCI-H460 lung = system: NCI-H460 lung
SN12C renal = system: SN12C renal
SF-268 CNS = system: SF-268 CNS
HCT-15 colon = system: HCT-15 colon
786-0 renal = system: 786-0 renal
RPMI-8226 leukemia = system: RPMI-8226 leukemia
HL-60(TB) leukemia = system: HL-60(TB) leukemia
RXF 393 renal = system: RXF 393 renal
NCI-H226 lung = system: NCI-H226 lung
SK-MEL-28 melanoma = system: SK-MEL-28 melanoma
K-562 leukemia = system: K-562 leukemia
HS 578T breast = system: HS 578T breast
SW-620 colon = system: SW-620 colon
TK-10 renal = system: TK-10 renal
MCF7 breast = system: MCF7 breast
SNB-19 CNS = system: SNB-19 CNS
MDA-MB-435 = system: MDA-MB-435
DU-145 prostate = system: DU-145 prostate
MDA-MB-231 breast = system: MDA-MB-231 breast
OVCAR-8 ovarian = system: OVCAR-8 ovarian
M14 melanoma = system: M14 melanoma
HT29 colon = system: HT29 colon
SF-539 CNS = system: SF-539 CNS
OVCAR-3 ovarian = system: OVCAR-3 ovarian
MALME-3M melanoma = system: MALME-3M melanoma
ACHN renal = system: ACHN renal
A549 NSCLC = system: A549 NSCLC
NCI/ADR-RES ovarian = system: NCI/ADR-RES ovarian
SR leukemia = system: SR leukemia
UACC-62 melanoma = system: UACC-62 melanoma

COc1cc(C2CC(c3ccc4c(c3)OCO4)=NN2C(C)=O)cc(OC)c1OC (centres undefined)
> 59.8 µM: TGI (NCI-H460 lung)
> 39.7 µM: TGI (M14 melanoma)
> 65.8 µM: TGI (SK-OV-3 ovarian)
7.29 µM: TGI (SF-539 CNS)
2.92 µM: TGI (HL-60(TB) leukemia)
> 50.5 µM: TGI (MOLT-4 leukemia)
> 74.1 µM: TGI (HS 578T breast)
8.07 µM: TGI (SK-MEL-5 melanoma)
97.3 µM: TGI (IGROV1 ovarian)
> 86.8 µM: TGI (UO-31 renal)
60 µM: TGI (HCC-2998 colon)
> 100 µM: TGI (OVCAR-5 ovarian) | TGI (HOP-62 NSCLC) | TGI (EKVX NSCLC) | TGI (SK-MEL-2 melanoma) | TGI (HCT-116 colon) | TGI (LOX IMVI melanoma) | TGI (CAKI-1 renal) | TGI (NCI-H23 lung) | TGI (HOP-92 NSCLC) | TGI (U251 CNS) | TGI (BT-549 breast) | TGI (UACC-257 melanoma) | TGI (PC-3 prostate) | TGI (OVCAR-4 ovarian) | TGI (SN12C renal) | TGI (SF-268 CNS) | TGI (HCT-15 colon) | TGI (786-0 renal) | TGI (NCI-H226 lung) | TGI (SK-MEL-28 melanoma) | TGI (K-562 leukemia) | TGI (SW-620 colon) | TGI (TK-10 renal) | TGI (MCF7 breast) | TGI (SNB-19 CNS) | TGI (MDA-MB-231 breast) | TGI (OVCAR-8 ovarian) | TGI (HT29 colon) | TGI (MALME-3M melanoma) | TGI (ACHN renal) | TGI (A549 NSCLC) | TGI (UACC-62 melanoma)
> 21.4 µM: TGI (DU-145 prostate)
> 25.7 µM: TGI (RPMI-8226 leukemia)
0.674 µM: TGI (MDA-MB-435)
0.808 µM: TGI (OVCAR-3 ovarian)
> 37 µM: TGI (SR leukemia)
> 64.8 µM: TGI (T-47D breast)
52.9 µM: TGI (KM12 colon)
4.75 µM: TGI (A498 renal)
> 27 µM: TGI (CCRF-CEM leukemia)
3.5 µM: TGI (SNB-75 CNS)
2.6 µM: TGI (COLO 205 colon)
4.51 µM: TGI (SF-295 CNS)
active: GI50 (KM12 colon) 0.422 µM | GI50 (SNB-75 CNS) 0.398 µM | GI50 (A498 renal) 0.296 µM | GI50 (SF-295 CNS) 0.368 µM | GI50 (SK-MEL-5 melanoma) 0.419 µM | GI50 (NCI-H522 lung) 0.382 µM | GI50 (NCI-H460 lung) 0.398 µM | GI50 (HL-60(TB) leukemia) 0.316 µM | GI50 (K-562 leukemia) 0.353 µM | GI50 (SW-620 colon) 0.426 µM | GI50 (MCF7 breast) 0.352 µM | GI50 (MDA-MB-435) 0.183 µM | GI50 (HT29 colon) 0.378 µM | GI50 (OVCAR-3 ovarian) 0.297 µM | GI50 (NCI/ADR-RES ovarian) 0.405 µM | GI50 (SR leukemia) 0.33 µM
inactive: GI50 (OVCAR-5 ovarian) 4.28 µM | GI50 (MOLT-4 leukemia) 1.05 µM | GI50 (HOP-62 NSCLC) 1.14 µM | GI50 (EKVX NSCLC) 3.13 µM | GI50 (SK-MEL-2 melanoma) > 100 µM | GI50 (SK-OV-3 ovarian) 0.972 µM | GI50 (HCT-116 colon) 0.491 µM | GI50 (LOX IMVI melanoma) 1.89 µM | GI50 (CAKI-1 renal) 0.715 µM | GI50 (HCC-2998 colon) 2.36 µM | GI50 (NCI-H23 lung) 1.81 µM | GI50 (UO-31 renal) 3.72 µM | GI50 (IGROV1 ovarian) 1.19 µM | GI50 (HOP-92 NSCLC) > 100 µM | GI50 (U251 CNS) 0.899 µM | GI50 (BT-549 breast) 6.82 µM | GI50 (CCRF-CEM leukemia) 0.79 µM | GI50 (UACC-257 melanoma) > 35.2 µM | GI50 (PC-3 prostate) 4.39 µM | GI50 (OVCAR-4 ovarian) 5.45 µM | GI50 (T-47D breast) 1.44 µM | GI50 (COLO 205 colon) 0.466 µM | GI50 (SN12C renal) 7.48 µM | GI50 (SF-268 CNS) 6.42 µM | GI50 (HCT-15 colon) 0.584 µM | GI50 (786-0 renal) 3.65 µM | GI50 (RPMI-8226 leukemia) 2.74 µM | GI50 (RXF 393 renal) 1.56 µM | GI50 (NCI-H226 lung) 13.5 µM | GI50 (SK-MEL-28 melanoma) 4.97 µM | GI50 (HS 578T breast) 1.26 µM | GI50 (TK-10 renal) 7.59 µM | GI50 (SNB-19 CNS) 1.91 µM | GI50 (DU-145 prostate) 1.06 µM | GI50 (MDA-MB-231 breast) 4.07 µM | GI50 (OVCAR-8 ovarian) 5.51 µM | GI50 (M14 melanoma) 0.536 µM | GI50 (SF-539 CNS) 0.592 µM | GI50 (MALME-3M melanoma) 1.88 µM | GI50 (ACHN renal) 3.66 µM | GI50 (A549 NSCLC) 2.42 µM | GI50 (UACC-62 melanoma) 0.493 µM
> 23.2 µM: TGI (RXF 393 renal)
